The subject of series [1] is Cells of stomach cancer, SNU-601. In words: In vivo anti-cancer activity of the poly(organophosphazene) hydrogel containing paclitaxel. Details: species or system nude mouse. The following applies: 60 mg/kg, day 10 after administration, ten mice per group. The protocol: A nude mouse (OrientalBio, Balb/C, female of 5-weeks old, 20 g) was used as an animal model for animal experimentation for an in vivo test. Cells of stomach cancer, SNU-601 (1×10^7 cells, 0.2 ml, Korean Cell Line Bank), were injected into the dorsum of the mouse. […] 0.2 ml of the solution was injected into the cancer cells, and the change in the size of the cells was measured.
Each test was conducted for ten (10) mice for each of the control groups and the experimental groups.

The target of series [2] is T1, albumin (Bovin Serum Albumin; BSA) (Bos taurus, UniProt P02769).
T1 construct: purchased Wako chemical
In words: Gel electrophoresis for ionic bond between additives and protein drug. To be noted: additive at various concentrations in 0.01% albumin solution. In kind it is binding. The protocol:
Each of them was added to 0.01% albumin solution (Bovin Serum Albumin; BSA, Wako chemical) at various concentrations and sufficiently stirred. After holding for 20 minutes, an electrophoresis for each of the obtained solutions was conducted through polyacrylamide gel.

T1 sequence (P02769 25-607): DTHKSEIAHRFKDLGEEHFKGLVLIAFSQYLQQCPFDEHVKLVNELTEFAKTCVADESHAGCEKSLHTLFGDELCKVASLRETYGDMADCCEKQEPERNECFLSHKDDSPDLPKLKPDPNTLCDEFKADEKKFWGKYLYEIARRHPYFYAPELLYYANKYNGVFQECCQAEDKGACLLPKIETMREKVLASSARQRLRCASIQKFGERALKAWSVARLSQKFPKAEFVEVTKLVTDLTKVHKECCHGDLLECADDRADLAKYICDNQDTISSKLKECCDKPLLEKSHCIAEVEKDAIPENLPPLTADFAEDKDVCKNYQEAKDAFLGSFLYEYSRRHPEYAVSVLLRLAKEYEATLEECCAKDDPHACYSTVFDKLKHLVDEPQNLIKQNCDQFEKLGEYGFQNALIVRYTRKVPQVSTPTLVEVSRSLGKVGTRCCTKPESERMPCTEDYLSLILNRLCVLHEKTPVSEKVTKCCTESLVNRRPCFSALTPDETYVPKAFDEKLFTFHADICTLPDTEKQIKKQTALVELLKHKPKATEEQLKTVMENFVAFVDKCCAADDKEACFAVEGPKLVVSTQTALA

For `CC(=O)O[C@H]1C(=O)[C@@]2(C)[C@H]([C@H](OC(=O)c3ccccc3)[C@]3(O)C[C@H](OC(=O)[C@H](O)[C@@H](NC(=O)c4ccccc4)c4ccccc4)C(C)=C1C3(C)C)[C@]1(OC(C)=O)CO[C@@H]1C[C@@H]2O` [Paclitaxel, paclitaxel], in series [1], the “mice died due to toxicity” value is 8 mice.

Turning to protamine, the “development property in polyacrylamide gel (ionic bond with albumin)” value in series [2] is listed as “worse development property of the gel as the concentration of the additive is higher”.

Source of the values: patent US9526699B2, “Biodegradable and thermosensitive poly(organophosphazene) hydrogel, preparation method thereof and use thereof” (KIST, priority 2006, dated 2016).
